# Test results: patent US5883243A, “Non-reducing saccharides, their preparations and uses” (Kabushiki Kaisha Hayashibara Seibutsu Kagaku Kenkyujo, priority 1997, dated 1999)
# How the values were obtained:
# [1] = tested on: Bifidobacterium adolescentis JCM 1275; test: Assimilation test by intestinal microorganism; assay type: cell-based; details: 0.5 w/v % saccharide in PYF broth, 37° C., 96 hours
# [2] = tested on: Bifidobacterium animalis JCM 1190; test: Assimilation test by intestinal microorganism; assay type: cell-based; details: 0.5 w/v % saccharide in PYF broth, 37° C., 96 hours
# [3] = tested on: Bifidobacterium bifidum JCM 1255; test: Assimilation test by intestinal microorganism; assay type: cell-based; details: 0.5 w/v % saccharide in PYF broth, 37° C., 96 hours
# [4] = tested on: Bifidobacterium breve JCM 1192; test: Assimilation test by intestinal microorganism; assay type: cell-based; details: 0.5 w/v % saccharide in PYF broth, 37° C., 96 hours
# [5] = tested on: Bifidobacterium infantis JCM 1222; test: Assimilation test by intestinal microorganism; assay type: cell-based; details: 0.5 w/v % saccharide in PYF broth, 37° C., 96 hours
# [6] = tested on: Bifidobacterium longum JCM 1217; test: Assimilation test by intestinal microorganism; assay type: cell-based; details: 0.5 w/v % saccharide in PYF broth, 37° C., 96 hours
# [7] = tested on: Lactobacillus fermentum IFO 3959; test: Assimilation test by intestinal microorganism; assay type: cell-based; details: 0.5 w/v % saccharide in PYF broth, 37° C., 96 hours
# [8] = tested on: Lactobacillus plantarum IFO 3070; test: Assimilation test by intestinal microorganism; assay type: cell-based; details: 0.5 w/v % saccharide in PYF broth, 37° C., 96 hours
# [9] = tested on: Eubacterium aerofaciens ATCC 25986; test: Assimilation test by intestinal microorganism; assay type: cell-based; details: 0.5 w/v % saccharide in PYF broth, 37° C., 96 hours
# [10] = tested on: Bacteroides distasonis JCM 5825; test: Assimilation test by intestinal microorganism; assay type: cell-based; details: 0.5 w/v % saccharide in PYF broth, 37° C., 96 hours
# [11] = tested on: Bacteroides vulgatus JCM 5826; test: Assimilation test by intestinal microorganism; assay type: cell-based; details: 0.5 w/v % saccharide in PYF broth, 37° C., 96 hours
# [12] = tested on: Bacteroides uniformis JCM 5828; test: Assimilation test by intestinal microorganism; assay type: cell-based; details: 0.5 w/v % saccharide in PYF broth, 37° C., 96 hours
# [13] = tested on: Clostridium perfringens JCM 3816; assay type: cell-based; details: 0.5 w/v % saccharide in PYF broth, 37° C., 96 hours
# [14] = tested on: Clostridium ramosum JCM 1298; test: Assimilation test by intestinal microorganism; assay type: cell-based; details: 0.5 w/v % saccharide in PYF broth, 37° C., 96 hours
# [15] = tested on: Clostridium sporogenes JCM 1416; test: Assimilation test by intestinal microorganism; assay type: cell-based; details: 0.5 w/v % saccharide in PYF broth, 37° C., 96 hours, free of sugar: ±
# Description: (§1) To evaluate the growth rate of and to judge the assimilability by the microorganisms, the resultant broth was diluted 5-fold, and the turbidity of the dilution was measured at a wavelength of 750 nm in a 1-cm light-path cell. […] The criteria were in Table 3, and the results were in Tables 4 and 5: […]
# [16] = tested on: Streptococcus faecalis IAM 10065; test: Assimilation test by intestinal microorganism; assay type: cell-based; details: 0.5 w/v % saccharide in PYF broth, 37° C., 96 hours
# [17] = tested on: Peptostreptococcus prevotii ATCC 9321; test: Assimilation test by intestinal microorganism; assay type: cell-based; details: 0.5 w/v % saccharide in PYF broth, 37° C., 96 hours
# [18] = tested on: Escherichia coli IFO 3301; test: Assimilation test by intestinal microorganism; assay type: cell-based; details: 0.5 w/v % saccharide in PYF broth, 37° C., 96 hours
# [19] = tested on: Streptococcus sobrinus ATCC 27351; test: Acid formation by dental caries-inducing microorganisms; details: living wet cells, 0.02M saccharide, Stephen buffer pH 7.0, 37° C.; for pH at each fermentation time (min): 0: 0 min; for pH at each fermentation time (min): 5: 5 min; for pH at each fermentation time (min): 15: 15 min; for pH at each fermentation time (min): 30: 30 min; for pH at each fermentation time (min): 60: 60 min; for pH at each fermentation time (min): 90: 90 min
# [20] = Maillard reaction (coloration with glycine); assay type: physicochemical; details: 10 w/v % saccharide, one w/v % glycine, 50 mM phosphate buffer pH 7.0, 100° C., 90 min; 1-cm cell
# [21] = tested on: Clostridium butyricum JCM 1391; assay type: cell-based; details: 0.5 w/v % saccharide in PYF broth, 37° C., 96 hours
# [22] = tested on: crude glucosyltransferase specimen derived from Streptococcus sobrinus strain (ATCC 27351); test: Inhibition of insoluble glucan formation by glucosyltransferase from dental caries-inducing microorganism; assay type: biochemical; details: for Yield of non-adsorbed glucans / Yield of adsorbed glucans: sucrose plus test saccharide (one ml of one w/v % each), pH 6.8, 37° C., 16 hours; for Yield of non-adsorbed glucans: sucrose alone 923; for Yield of adsorbed glucans: sucrose alone 1,160
# Description: To a mixture solution consisting of one ml of one w/v % sucrose solution, one ml of one w/v % of a test saccharide solution, and 1.5 ml of 0.1M phosphate buffer (pH 6.8) was added 0.5 ml solution containing a crude glucosyltransferase specimen in a total protein content of 10 mg, and the mixture solution was placed in a small test tube which was then fixed and slanted to give a grade 30 degrees and allowed to react at 37° C. for 16 hours. The reaction mixture was transferred gently to another test tube and mixed with a solution obtained by washing carefully with 4 ml water the remaining substances adhered to the inner walls of the small test tube, and the mixture solution was centrifuged to obtain a precipitate as a non-adsorbed glucan. The amounts of the adsorbed- and non-adsorbed glucans thus obtained were respectively quantified by the anthrone-sulfuric acid method, and the total amount of them was regarded as the amount of the formed insoluble glucans. As a control system, a reaction system using water in place of the test saccharide solution, i.e. a reaction system using sucrose as a saccharide, was provided.
# bifid bacteria = test: Assimilation test by intestinal microorganism, overall judgement; assay type: cell-based; details: results of Tables 4 and 5
# Description: as §1
# [23] = tested on: Enzyme from small intestinal mucus membrane; details: enzymes of small intestinal mucus membranes
Structure (SMILES),Judgement of assimilation (turbidity at a wavelength of 750 nm × 5) [1],Judgement of assimilation (turbidity at a wavelength of 750 nm × 5) [2],Judgement of assimilation (turbidity at a wavelength of 750 nm × 5) [3],Judgement of assimilation (turbidity at a wavelength of 750 nm × 5) [4],Judgement of assimilation (turbidity at a wavelength of 750 nm × 5) [5],Judgement of assimilation (turbidity at a wavelength of 750 nm × 5) [6],Judgement of assimilation (turbidity at a wavelength of 750 nm × 5) [7],Judgement of assimilation (turbidity at a wavelength of 750 nm × 5) [8],Judgement of assimilation (turbidity at a wavelength of 750 nm × 5) [9],Judgement of assimilation (turbidity at a wavelength of 750 nm × 5) [10],Judgement of assimilation (turbidity at a wavelength of 750 nm × 5) [11],Judgement of assimilation (turbidity at a wavelength of 750 nm × 5) [12],Judgement of assimilation (turbidity at a wavelength of 750 nm × 5) [14],Judgement of assimilation (turbidity at a wavelength of 750 nm × 5) [16],pH at each fermentation time (min): 0 [19],pH at each fermentation time (min): 5 [19],pH at each fermentation time (min): 15 [19],pH at each fermentation time (min): 30 [19],pH at each fermentation time (min): 60 [19],pH at each fermentation time (min): 90 [19],other results
"OC[C@H]1O[C@H](OC[C@H]2OC(O)[C@H](O)[C@@H](O)[C@@H]2O)[C@H](O)[C@@H](O)[C@@H]1O (some centres unmarked) [Isomaltose, isomaltose, reference compound]",+++ (0.3 or higher),+++ (0.3 or higher),+ (0.15 or higher but less than 0.2),+++ (0.3 or higher),+++ (0.3 or higher),++ (0.2 or higher but less than 0.3),- (Less than 0.1),- (Less than 0.1),+ (0.15 or higher but less than 0.2),+ (0.15 or higher but less than 0.2),- (Less than 0.1),- (Less than 0.1),- (Less than 0.1),+ (0.15 or higher but less than 0.2),7.0,7.0,6.9,6.9,6.8,6.7,Judgement of assimilation (turbidity at a wavelength of 750 nm × 5) [13]: ± (0.1 or higher but less than 0.15); Judgement of assimilation (turbidity at a wavelength of 750 nm × 5) [15]: ± (0.1 or higher but less than 0.15); Judgement of assimilation (turbidity at a wavelength of 750 nm × 5) [17]: - (Less than 0.1); Judgement of assimilation (turbidity at a wavelength of 750 nm × 5) [18]: - (Less than 0.1)
"OC[C@H]1O[C@@](CO)(O[C@H]2O[C@H](CO)[C@@H](O)[C@H](O)[C@H]2O)[C@@H](O)[C@@H]1O [Sucrose, sucrose, reference compound]",,,,,,,,,,,,,,,7.0,4.3,4.1,4.0,4.0,4.0,
"OC[C@H]1O[C@H](O[C@H]2O[C@H](CO)[C@@H](O)[C@H](O)[C@H]2O)[C@H](O)[C@@H](O)[C@@H]1O [Trehalose, trehalose, reference compound]",+ (0.15 or higher but less than 0.2),+ (0.15 or higher but less than 0.2),+ (0.15 or higher but less than 0.2),- (Less than 0.1),- (Less than 0.1),++ (0.2 or higher but less than 0.3),+ (0.15 or higher but less than 0.2),++ (0.2 or higher but less than 0.3),- (Less than 0.1),++ (0.2 or higher but less than 0.3),+ (0.15 or higher but less than 0.2),++ (0.2 or higher but less than 0.3),+ (0.15 or higher but less than 0.2),+ (0.15 or higher but less than 0.2),7.0,6.7,5.3,4.7,4.3,4.2,"Coloration degree (at a wavelength of 480 nm) [20]: 0.007; Judgement of assimilation (turbidity at a wavelength of 750 nm × 5) [21]: +++ (0.3 or higher); Judgement of assimilation (turbidity at a wavelength of 750 nm × 5) [13]: +++ (0.3 or higher); Judgement of assimilation (turbidity at a wavelength of 750 nm × 5) [17]: + (0.15 or higher but less than 0.2); Judgement of assimilation (turbidity at a wavelength of 750 nm × 5) [18]: - (Less than 0.1); Yield of non-adsorbed glucans [22]: 1,130 μg/ml; Yield of adsorbed glucans [22]: 772 µg/mL; Inhibitory percentage (%) on insoluble glucans' formation ([22]; sucrose plus test saccharide, versus sucrose alone): 8.7%"
"OC[C@H]1O[C@H](OC[C@H]2O[C@H](OC[C@H]3O[C@H](O[C@H]4O[C@H](CO)[C@@H](O)[C@H](O)[C@H]4O)[C@H](O)[C@@H](O)[C@@H]3O)[C@H](O)[C@@H](O)[C@@H]2O)[C@H](O)[C@@H](O)[C@@H]1O [α-Isomaltotriosyl α-glucoside, O-α-D-glucopyranosyl-(1→6 )-O-α-D-glucopyranosyl-(1→6)-α-D-glucopyranosyl α-D-glucopyrandside]",+++ (0.3 or higher),+++ (0.3 or higher),++ (0.2 or higher but less than 0.3),+++ (0.3 or higher),++ (0.2 or higher but less than 0.3),+++ (0.3 or higher),- (Less than 0.1),- (Less than 0.1),- (Less than 0.1),- (Less than 0.1),- (Less than 0.1),- (Less than 0.1),- (Less than 0.1),- (Less than 0.1),7.0,7.0,6.9,6.9,6.9,6.9,"Coloration degree (at a wavelength of 480 nm) [20]: 0.019; Judgement of assimilation (turbidity at a wavelength of 750 nm × 5) [21]: +++ (0.3 or higher); Judgement of assimilation (turbidity at a wavelength of 750 nm × 5) [17]: ± (0.1 or higher but less than 0.15); Judgement of assimilation (turbidity at a wavelength of 750 nm × 5) [18]: - (Less than 0.1); Selective assimilability by bifid bacteria, in words (bifid bacteria): high in the selective assimilability by bifid bacteria; Yield of non-adsorbed glucans [22]: 269 µg/mL; Yield of adsorbed glucans [22]: 66 µg/mL; Digestibility, judgement in words [23]: relatively-low in digestibility"
